According to ChEMBL document CHEMBL1135050, “Design and synthesis of 4,5-disubstituted-thiophene-2-amidines as potent urokinase inhibitors” (Bioorg Med Chem Lett, 2002):
In brackets after ≈: the same amount, converted by molar mass.

What was measured:
[1] = Compound was evaluated for its solubility in water; assay type: ADME
[2] = target: Urokinase-type plasminogen activator (Homo sapiens, UniProt P00749); assay: Inhibition of Human kidney cell urokinase; assay type: cell-based

SMILES | solubility [1] [µM] | Ki [2] [nM]
Cc1sc(C(=N)N)cc1-c1nc(-c2ccccc2)cs1 | 9000 (≈ 2690 µg/mL) | –
COc1ccc(-c2csc(-c3cc(C(=N)N)sc3SC)n2)cc1OC | – | 58
CSc1sc(C(=N)N)cc1-c1nc(-c2ccccc2)cs1 | 300 (≈ 99.4 µg/mL) | –
CSc1sc(C(=N)N)cc1-c1nc(-c2ccc(Cl)cc2)cs1 | – | 102
COc1sc(C(=N)N)cc1-c1nc(-c2ccccc2)cs1 | – | 531
CS(=O)(=O)c1sc(C(=N)N)cc1-c1nc(-c2ccc(Cl)cc2)cs1 | – | 2500
N=C(N)c1cc(-c2nc(-c3ccc(Cl)cc3)cs2)c(SCc2ccccc2)s1 | – | 2500
CCc1sc(C(=N)N)cc1-c1nc(-c2ccccc2)cs1 | 2700 (≈ 846 µg/mL) | 138
